A word on the IC50: it is the concentration at which inhibition is half-maximal. A high value points to lower potency. As a reminder, the GI50 is the concentration giving 50% growth inhibition. A lower GI50 goes with greater sensitivity of the cells. What is called EC50 is the concentration needed to bring the measured effect to its halfway point.

Here are results for one compound from patent US20240025856A1, “1,2,3,4-TETRAHYDROQUINOLINE DERIVATIVES AS INHIBITORS OF THE YAP/TAZ-TEAD ACTIVATION FOR TREATING CANCER” (KATHOLIEKE UNIVERSITEIT LEUVEN, priority 2020, published 2024).

Type in all cases: cell-based
Assay [1] relates to YAP/TAZ-TEAD transcription. Briefly: Reporter gene assay for measuring the inhibition of YAP/TAZ-TEAD transcription (TEAD-responsive element luciferase reporter in Hek293T cells). The settings on record: Homo sapiens, HEK-293T, 24 h, Hek293T cells transiently transfected with TEAD-responsive element luciferase reporter; 24 hours incubation. In a few lines:
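Readout is SteadyLite luciferase luminescence from a TEAD-responsive element reporter transiently transfected into Hek293T cells, exposed to compounds for 24 h at 37 °C/5% CO2. IC50 derived from percent inhibition, scaled between vehicle basal activity (0%) and positive control inhibitor (100%).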
Background: A reporter such as luciferase makes a cellular process visible.

The next assay concerns NCI-H226. Briefly: Cancer cell line proliferation assay (CellTiter-Glo), NCI-H226. The settings on record: Homo sapiens, 144 h, Lung (mesothelioma), NF2 HOM DEL/LATS1 HOM DEL, 6 days. On the procedure:
(§1) All the cell lines are cultured in the media supplemented with 10-20% fetal bovine serum, in the temperature of 37° C., 5% CO2 and 95% humidity. The indicated cell lines (all sourced from the ATCC cell culture collection) are plated in 96-Well Flat Clear Bottom Black Polystyrene TC-Treated Microplates with the final cell density of 4×10^3 cells/well. Cells are incubated overnight and then compounds, dissolved in DMSO, are added in dose-response. Cells are incubated with compound dilutions for another 6 days. Cell viability is quantitated using CellTiter-Glo reagent (Perkin Elmer) and measured using an EnVision Multi Label Reader.

The subject of the next assay is Caov-3. Briefly: Cancer cell line proliferation assay (CellTiter-Glo), Caov-3. To be noted: Homo sapiens, 144 h, Ovary, LATS2 HOM DEL, 6 days. On the procedure:
as §1

In another assay the test system is SCC-9. In words: Cancer cell line proliferation assay (CellTiter-Glo), SCC-9. The settings on record: Homo sapiens, 144 h, Head & neck (squamous), FAT1 HOM DEL, 6 days. On the procedure:
as §1
For orientation: ATP-based viability assays read luminescence as a measure of living cells.

The test system of another assay is NCI-1H2052. Briefly: Mesothelioma cell line proliferation assay, H2052 (ATPlite). The settings on record: Homo sapiens, NCI-H2052, 144 h, 6 days with compound, read-out: H2025 (EC50). On the procedure:
(§2) Mesothelioma cell lines, NCI-1H226 and NCI-1H2052 (all sourced from the ATCC cell culture collection) are plated in 96-well plates (Corning® 96 Well White Polystyrene Microplate clear flat bottom, white polystyrene (TC-Treated)), at 1500 cells/well in full medium (RPMI 1640 ATCC modification with L-glutamine, HEPES, Phenol Red, Sodium Pyruvate, High glucose, Low sodium bicarbonate and 10% fetal bovine serum). Cells are incubated overnight at 37° C. in an incubator with 5% C02. Then compounds, dissolved in DMSO, are added in dose-response. Cells are incubated with compound dilutions for another 6 days at 37° C. in an incubator with 5% C02. Cell viability is quantitated using the ATPlite kit (Perkin-Elmer) and the luminescence is read-out using an Envision instrument (Perkin-Elmer). The amount of relative light units produced using the ATPlite kit is used to calculated percent of inhibition.
(§3) The activities of some example compounds are depicted in the table below. The activity ranges A, B and C refer to EC50 values in the mesothelioma cell line proliferation assay as described as follows: “A”: EC50<1 μM; “B”: 1 μM s EC50≤10 μM and “C”: EC50≥10 μM; NT: not tested.

The subject of the next assay is RL95-2. In words: Cancer cell line proliferation assay (CellTiter-Glo), RL95-2. The settings on record: Homo sapiens, 144 h, Endometrial (adeno-squamous), LATS1 HOM DEL, 6 days. The method, then:
as §1

The test system of a further assay is NCI-1H226. Briefly: Mesothelioma cell line proliferation assay, H226 (ATPlite). To be noted: Homo sapiens, NCI-H226, 144 h, 6 days with compound. The method, then: as §2, §3
In the next assay the test system is C-33 A. Briefly: Cancer cell line proliferation assay (CellTiter-Glo), C-33 A. The settings on record: Homo sapiens, 144 h, Cervical (squamous), L914Wfs*10 LATS2, 6 days. On the procedure:
as §1

A value given as a limit tells only on which side of the number the result lay.

Compound `C=CC(=O)NC1Cc2ccccc2N(c2ccc(C(F)(F)F)cc2)C1` (centres unmarked) [compound 001, N-(1-(4-(trifluoromethyl)phenyl)-1,2,3,4-tetrahydroquinolin-3-yl)acrylamide] had an IC50 in assay [1] of less than 1 µM. Besides, the GI50 in the assay on NCI-H226 is 0.04 µM; with Caov-3, 0.11 µM; with SCC-9 it was 0.05 µM; with RL95-2 it was 0.05 µM; in the assay on C-33 A, 0.1 µM. Besides, the EC50 with NCI-1H2052 and in the assay on NCI-1H226 was less than 1 µM in each case.
